Test results taken from the NIST ThermoML archive (doi:10.1021/je200811n).
± gives the expanded uncertainty stated by the source.

Settings: Hot wire method

F/C=C/C(F)(F)F [trans-1,3,3,3-tetrafluoropropene]
Settings	thermal conductivity [W/m/K]
322.82 K, 587 kPa, Gas	0.01562 ± 0.00053
322.86 K, 21602 kPa, Liquid	0.08015 ± 0.00088
322.89 K, 858 kPa, Gas	0.01585 ± 0.00053
322.9 K, 15321 kPa, Liquid	0.07653 ± 0.00085
322.91 K, 884 kPa, Gas	0.01588 ± 0.00053
322.91 K, 5442 kPa, Liquid	0.06937 ± 0.00078
322.93 K, 431 kPa, Gas	0.01557 ± 0.00052
322.94 K, 5376 kPa, Liquid	0.06973 ± 0.00078
322.99 K, 96 kPa, Gas	0.01599 ± 0.00054
323 K, 710 kPa, Gas	0.01574 ± 0.00053
323.07 K, 301 kPa, Gas	0.01559 ± 0.00052
323.18 K, 586 kPa, Gas	0.01563 ± 0.00053
323.19 K, 193 kPa, Gas	0.01574 ± 0.00053
323.23 K, 856 kPa, Gas	0.01588 ± 0.00053
323.26 K, 882 kPa, Gas	0.01587 ± 0.00053
323.3 K, 430 kPa, Gas	0.01563 ± 0.00053
323.36 K, 707 kPa, Gas	0.01574 ± 0.00053
323.41 K, 96 kPa, Gas	0.0162 ± 0.00054
323.46 K, 301 kPa, Gas	0.01566 ± 0.00053
323.55 K, 585 kPa, Gas	0.01566 ± 0.00053
323.61 K, 193 kPa, Gas	0.01581 ± 0.00053
323.71 K, 429 kPa, Gas	0.01566 ± 0.00053
323.86 K, 96 kPa, Gas	0.01599 ± 0.00054
323.88 K, 301 kPa, Gas	0.01569 ± 0.00053
324.05 K, 193 kPa, Gas	0.01583 ± 0.00053
324.33 K, 96 kPa, Gas	0.01609 ± 0.00054
331.18 K, 96 kPa, Gas	0.01637 ± 0.00055
331.19 K, 198 kPa, Gas	0.01658 ± 0.00056
331.21 K, 298 kPa, Gas	0.01665 ± 0.00056
331.4 K, 96 kPa, Gas	0.0162 ± 0.0005
331.42 K, 198 kPa, Gas	0.01638 ± 0.00055
331.43 K, 298 kPa, Gas	0.01653 ± 0.00055
331.64 K, 96 kPa, Gas	0.01611 ± 0.00054
331.65 K, 197 kPa, Gas	0.01629 ± 0.00055
331.67 K, 298 kPa, Gas	0.0164 ± 0.0006
331.9 K, 96 kPa, Gas	0.01602 ± 0.00054
331.9 K, 298 kPa, Gas	0.01635 ± 0.00055
331.91 K, 197 kPa, Gas	0.01618 ± 0.00054
332.16 K, 298 kPa, Gas	0.01629 ± 0.00055
332.17 K, 198 kPa, Gas	0.01612 ± 0.00054
332.17 K, 1166 kPa, Gas	0.01695 ± 0.0003
332.18 K, 1084 kPa, Gas	0.01688 ± 0.0003
332.3 K, 442 kPa, Gas	0.01671 ± 0.00056
332.33 K, 813 kPa, Gas	0.0168 ± 0.00056
332.38 K, 585 kPa, Gas	0.01673 ± 0.00056
332.42 K, 298 kPa, Gas	0.01634 ± 0.00055
332.43 K, 600 kPa, Gas	0.0167 ± 0.00056
332.46 K, 434 kPa, Gas	0.01674 ± 0.00056
332.46 K, 1166 kPa, Gas	0.01705 ± 0.00031
332.47 K, 1082 kPa, Gas	0.01688 ± 0.0003
332.52 K, 198 kPa, Gas	0.0166 ± 0.00056
332.63 K, 813 kPa, Gas	0.01684 ± 0.00056
332.65 K, 442 kPa, Gas	0.01674 ± 0.00056
332.7 K, 96 kPa, Gas	0.01695 ± 0.00057
332.71 K, 584 kPa, Gas	0.0167 ± 0.00056
332.75 K, 598 kPa, Gas	0.01664 ± 0.00056
332.76 K, 1166 kPa, Gas	0.01708 ± 0.00031
332.79 K, 1079 kPa, Gas	0.01686 ± 0.0003
332.8 K, 434 kPa, Gas	0.01674 ± 0.00056
332.9 K, 198 kPa, Gas	0.01664 ± 0.00056
332.91 K, 871 kPa, Gas	0.01664 ± 0.00056
332.97 K, 813 kPa, Gas	0.01681 ± 0.00056
333.01 K, 444 kPa, Gas	0.01648 ± 0.00055
333.08 K, 1166 kPa, Gas	0.01705 ± 0.00031
333.11 K, 1077 kPa, Gas	0.0169 ± 0.0003
333.13 K, 96 kPa, Gas	0.017 ± 0.00057
333.26 K, 868 kPa, Gas	0.01661 ± 0.00056
333.31 K, 198 kPa, Gas	0.01672 ± 0.00056
333.42 K, 1165 kPa, Gas	0.01702 ± 0.0003
333.46 K, 1075 kPa, Gas	0.01692 ± 0.0003
333.56 K, 96 kPa, Gas	0.01706 ± 0.00057
333.6 K, 298 kPa, Gas	0.01659 ± 0.00056
333.74 K, 197 kPa, Gas	0.01673 ± 0.00056
333.82 K, 441 kPa, Gas	0.01653 ± 0.00055
333.98 K, 435 kPa, Gas	0.01662 ± 0.00056
334.02 K, 96 kPa, Gas	0.01704 ± 0.00057
334.02 K, 298 kPa, Gas	0.01661 ± 0.00056
334.19 K, 197 kPa, Gas	0.01672 ± 0.00056
334.51 K, 96 kPa, Gas	0.01712 ± 0.00057
340.58 K, 3036 kPa, Liquid	0.06257 ± 0.0007
340.6 K, 1565 kPa, Liquid	0.06077 ± 0.00069
340.63 K, 3034 kPa, Liquid	0.06242 ± 0.0007
340.65 K, 1563 kPa, Liquid	0.06068 ± 0.00068
340.7 K, 96 kPa, Gas	0.01742 ± 0.00058
340.73 K, 194 kPa, Gas	0.01765 ± 0.00059
340.73 K, 5177 kPa, Liquid	0.06477 ± 0.00073
340.75 K, 8139 kPa, Liquid	0.06735 ± 0.00075
340.75 K, 8199 kPa, Liquid	0.06725 ± 0.00075
340.78 K, 5176 kPa, Liquid	0.06447 ± 0.00072
340.8 K, 8202 kPa, Liquid	0.06713 ± 0.00075
340.82 K, 3032 kPa, Liquid	0.06247 ± 0.00071
340.86 K, 1561 kPa, Liquid	0.06064 ± 0.00069
340.88 K, 3031 kPa, Liquid	0.06222 ± 0.0007
340.92 K, 97 kPa, Gas	0.01718 ± 0.00057
340.92 K, 1560 kPa, Liquid	0.06043 ± 0.00068
340.94 K, 194 kPa, Gas	0.0174 ± 0.0006
341.03 K, 8138 kPa, Liquid	0.06739 ± 0.00075
341.04 K, 20095 kPa, Liquid	0.07528 ± 0.00083
341.06 K, 16393 kPa, Liquid	0.07294 ± 0.00081
341.07 K, 5175 kPa, Liquid	0.06447 ± 0.00073
341.08 K, 8204 kPa, Liquid	0.06709 ± 0.00076
341.09 K, 3029 kPa, Liquid	0.06217 ± 0.0007
341.09 K, 21968 kPa, Liquid	0.07668 ± 0.00085
341.1 K, 8133 kPa, Liquid	0.06713 ± 0.00075
341.1 K, 12136 kPa, Liquid	0.07037 ± 0.00078
341.1 K, 20086 kPa, Liquid	0.07523 ± 0.00083
341.12 K, 16392 kPa, Liquid	0.07302 ± 0.00081
341.13 K, 1563 kPa, Liquid	0.06043 ± 0.00068
341.14 K, 96 kPa, Gas	0.01698 ± 0.00057
341.15 K, 5174 kPa, Liquid	0.06431 ± 0.00072
341.15 K, 21974 kPa, Liquid	0.07662 ± 0.00085
341.16 K, 194 kPa, Gas	0.01722 ± 0.00058

Liquid
Settings	thermal conductivity [W/m/K]
323.15 K	0.06606 ± 0.00047
333.15 K	0.06293 ± 0.00045
